The text below walks through data of patent publication US12194011B2, “Compositions comprising theanine, magnolia, and phellodendron” (Nutramax Laboratories, Inc., priority 2015, dated 2025).

One data set concerns serotonin (5-HT). The data set is described as follows: Basal serotonin (5-HT) output in hippocampal microdialysate after 6 daily oral doses. It counts as in vivo. The settings on record: male C57BI mice, basal level before 7th dose, hippocampal dialysate, student's t-test p<0.05. The method, then: (§1) Neurotransmitter release patterns in the brain were measured by a procedure which involved inserting a probe into the […] region (microdialysis probe) of a laboratory animal and flushing the probe via dialysis with an artificial cerebrospinal fluid (CSF). This is an accepted and common method used to obtain and measure in vivo brain levels of neurotransmitters and other small […].
(§2) The fluid being collected represents the extracellular or interstitial fluid found in the hippocampal region of the brain. This area is usually the preferred and typical area for microdialysis analysis because any changes measured in this area of the brain are believed to correspond with approximately 80% of whole brain tissue. […]
(§3) For the evaluation, male C57BI mice were divided into groups (6 per group) and administered a variety of compounds or a placebo orally for seven days. […] Each aliquot was then analyzed to determine the amount of GABA, glutamate, and serotonin (5-HT) in each sample. […]
(§4) First, basal output levels of each neurotransmitter were measured to determine any long-term, chronic effects of each compound on the neurotransmitters. […] These levels were determined by averaging the levels of each neurotransmitter in the three, 30-minute aliquots prior to the administration of the 7th daily dose (Sample −90 min to −60, Sample −60 minutes to −30, and Sample −30 minutes to time 0). […]

The next data set deals with GABA. The data set is described as follows: Acute GABA output in hippocampal microdialysate after the 7th daily dose. It counts as in vivo, C57BI mice. The following applies: up to 210 minutes after 7th daily dose, % of basal output, ANOVA p<0.05. How it is done: as §1, §2, §3, §4
In a further data set the test system is glutamate. As to the kind of experiment: Acute glutamate output in hippocampal microdialysate after the 7th daily dose. It counts as in vivo, C57BI mice. The settings on record: after 7th daily dose, % of basal output. How it is done: as §1, §2, §3, §4
In data set [1] the test system is Wistar rats. As to the kind of experiment: Elevated plus-maze (EPM) test. It counts as in vivo. The following applies: PO daily for 14 days, 16 per group, vehicle 10 ± 2. How it is done:
(§5) Wistar rats (16 per group) were dosed either with individual components (L-theanine, magnolia/phellodendron, and milk whey protein) or several combinations of the three, including the three-way combination (theanine+magnolia/phellodendron+milk whey protein). Magnolia/phellodendron combination was provided as a commercially available preparation (RELORA; InterHealth Nutraceuticals, Inc., Benicia, CA). Administered milk whey protein was standardized to 80% alpha-lactalbumin. The rats were dosed daily for 14 days, and then a series of behavioral assays were performed to detect any anxiolytic effects on the rats or sedative effects. The treatment groups were as follows: • 1: L-theanine+magnolia/phellodendron • 2: L-theanine+Milk Whey Protein • 3: magnolia/phellodendron+Milk Whey Protein • 4: L-theanine+magnolia/phellodendron+Milk Whey Protein • 5: L-theanine • 6: magnolia/phellodendron • 7: Milk Whey Protein
The elevated plus-maze (EPM) capitalizes on the natural aversion (trait anxiety) of rodents on brightly lit, open, and elevated areas. The EPM has very strong predictive ability and is often used to profile the potential anxiolytic activity of compounds. During this test, the rats are videotaped after being placed in the elevated maze. The videos are analyzed to determine the % of time the rats stay in the open, elevated portions of the maze. […]

Data set [2] has as its system Wistar rats. The data set is described as follows: Open-field activity as a measure of sedation. The settings on record: PO daily for 14 days, vehicle 9062 ± 597. Type of data set: in vivo. How it is done: as §5
Locomotor activity in an open field test is a good measure of the sedative properties of a compound. As one example, a noted side-effect of many anxiolytic compounds such as benzodiazepines is marked sedation in conjunction with administration. […]
This test is performed by placing a rat in an open, brightly lit enclosure. The rats are videotaped, and the total distance the rat travels during the testing period is recorded as an indicator of locomotor activity. […]

On to `CCNC(=O)CC[C@H](N)C(=O)O` [Compound A, L-theanine], for which the “effect on basal output of serotonin (5-HT) vs placebo” value in the data set on serotonin (5-HT) is reported as “none of L-theanine, Relora, nor milk whey protein had any significant effect”. Moreover, the “acute treatment effect on GABA vs placebo (ANOVA)” value with GABA is given as “no statistically significant treatment effects”. In the data set on glutamate, the “immediate treatment effect on glutamate levels” value was “neither the individual components (A, B, C) nor the combination (A+B+C) had an immediate treatment effect”. The “Mean % Time in open arms ± SEM” value in the data set on Wistar rats [1] stood at 13 ± 2%. Further, in the data set with Wistar rats [2], the “Mean Distance (cm) ± SEM” value amounted to 9971 ± 652 cm.
